Reference: the NIST ThermoML archive (doi:10.1016/j.jct.2009.09.013)
Numbers after ± are expanded uncertainties.

Experiment: xn = mol fraction of the nth substance listed
Details: 101 kPa, Liquid; for speed of sound: Sing-around technique in a fixed-path interferometer; for kinematic viscosity: Vibrating wire viscometry; for mass density: Vibrating tube method

OCCCCO [1,4-butanediol] + CCCCO
Details	kinematic viscosity [m2/s]	mass density [kg/m3]	speed of sound [m/s]
293.02 K, x1 = 1	–	–	1614.9 ± 2.4
293.03 K, x1 = 0.7946	–	–	1537.8 ± 2.3
293.05 K, x1 = 0.6478	–	–	1482.1 ± 2.3
293.05 K, x1 = 0.9234	–	–	1586.4 ± 2.4
293.06 K, x1 = 0.3571	–	–	1375.1 ± 2.2
293.06 K, x1 = 0.4979	–	–	1426 ± 2.3
293.07 K, x1 = 0.2	–	–	1321 ± 2.2
293.08 K, x1 = 0.051	–	–	1272.7 ± 2.2
298.01 K, x1 = 1	6.99e-05 ± 1.5e-06	–	–
298.06 K, x1 = 0.4592	1.56e-05 ± 3.3e-07	–	–
298.06 K, x1 = 1	–	–	1602.6 ± 2.4
298.07 K, x1 = 0.1507	5.44e-06 ± 1.2e-07	–	–
298.07 K, x1 = 0.9374	6e-05 ± 1.3e-06	–	–
298.08 K, x1 = 0.2	–	–	1304.8 ± 2.2
298.08 K, x1 = 0.5676	2.18e-05 ± 4.6e-07	–	–
298.08 K, x1 = 0.6478	–	–	1468.3 ± 2.3
298.08 K, x1 = 0.7946	–	–	1524.7 ± 2.3
298.09 K, x1 = 0.3571	–	–	1359.7 ± 2.2
298.09 K, x1 = 0.7435	3.62e-05 ± 7.7e-07	–	–
298.1 K, x1 = 0.051	–	–	1255.7 ± 2.2
298.1 K, x1 = 0.4979	–	–	1411.3 ± 2.3
298.1 K, x1 = 0.6576	2.84e-05 ± 6.1e-07	–	–
298.1 K, x1 = 0.8108	4.34e-05 ± 9.3e-07	–	–
298.1 K, x1 = 0.9234	–	–	1573.9 ± 2.4
298.14 K, x1 = 0.2986	9.22e-06 ± 2e-07	–	–
298.15 K, x1 = 0.1507	–	837.834 ± 0.27	–
298.15 K, x1 = 0.2986	–	869.164 ± 0.27	–
298.15 K, x1 = 0.4592	–	902.986 ± 0.27	–
298.15 K, x1 = 0.5676	–	925.394 ± 0.27	–
298.15 K, x1 = 0.6576	–	943.952 ± 0.28	–
298.15 K, x1 = 0.7435	–	961.447 ± 0.28	–
298.15 K, x1 = 0.8108	–	974.991 ± 0.29	–
298.15 K, x1 = 0.9374	–	1000.24 ± 0.3	–
298.15 K, x1 = 1	–	1012.72 ± 0.24	–
302.51 K, x1 = 1	5.63e-05 ± 1.2e-06	–	–
302.99 K, x1 = 0.9374	4.76e-05 ± 1e-06	–	–
303 K, x1 = 0.6576	2.33e-05 ± 5e-07	–	–
303.01 K, x1 = 0.1507	4.68e-06 ± 1e-07	–	–
303.01 K, x1 = 0.5676	1.8e-05 ± 3.8e-07	–	–
303.01 K, x1 = 0.7435	2.93e-05 ± 6.3e-07	–	–
303.01 K, x1 = 0.8108	3.49e-05 ± 7.5e-07	–	–
303.04 K, x1 = 0.4592	1.3e-05 ± 2.8e-07	–	–
303.06 K, x1 = 0.2986	7.83e-06 ± 1.7e-07	–	–
303.15 K, x1 = 0.1507	–	834.13 ± 0.27	–
303.15 K, x1 = 0.2986	–	865.589 ± 0.27	–
303.15 K, x1 = 0.4592	–	899.553 ± 0.27	–
303.15 K, x1 = 0.5676	–	922.055 ± 0.28	–
303.15 K, x1 = 0.6576	–	940.685 ± 0.28	–
303.15 K, x1 = 0.7435	–	958.245 ± 0.28	–
303.15 K, x1 = 0.8108	–	971.848 ± 0.29	–
303.15 K, x1 = 0.9374	–	997.175 ± 0.3	–
303.15 K, x1 = 1	–	1009.69 ± 0.24	–
303.3 K, x1 = 1	–	–	1590.1 ± 2.3
303.36 K, x1 = 0.2	–	–	1287.8 ± 2.2
303.36 K, x1 = 0.4979	–	–	1396.1 ± 2.3
303.36 K, x1 = 0.7946	–	–	1511 ± 2.3
303.36 K, x1 = 0.9234	–	–	1561 ± 2.4
303.37 K, x1 = 0.051	–	–	1238 ± 2.2
303.37 K, x1 = 0.3571	–	–	1343.7 ± 2.2
303.39 K, x1 = 0.6478	–	–	1453.8 ± 2.3
308.06 K, x1 = 1	4.37e-05 ± 9.4e-07	–	–
308.15 K, x1 = 0.1507	–	830.397 ± 0.27	–
308.15 K, x1 = 0.2986	–	861.995 ± 0.27	–
308.15 K, x1 = 0.4592	–	896.107 ± 0.27	–
308.15 K, x1 = 0.5676	–	918.702 ± 0.28	–
308.15 K, x1 = 0.6576	–	937.408 ± 0.28	–
308.15 K, x1 = 0.7435	–	955.036 ± 0.28	–
308.15 K, x1 = 0.8108	–	968.692 ± 0.29	–
308.15 K, x1 = 0.9374	–	994.107 ± 0.3	–
308.15 K, x1 = 1	–	1006.66 ± 0.24	–
308.16 K, x1 = 0.9374	3.79e-05 ± 8.1e-07	–	–
308.17 K, x1 = 0.6576	1.9e-05 ± 4.1e-07	–	–
308.18 K, x1 = 0.4592	1.09e-05 ± 2.3e-07	–	–
308.19 K, x1 = 0.8108	2.8e-05 ± 6e-07	–	–
308.22 K, x1 = 0.1507	3.96e-06 ± 8.4e-08	–	–
308.22 K, x1 = 0.2986	6.63e-06 ± 1.4e-07	–	–
308.23 K, x1 = 0.5676	1.48e-05 ± 3.2e-07	–	–
308.24 K, x1 = 0.7435	2.37e-05 ± 5.1e-07	–	–
308.32 K, x1 = 0.7946	–	–	1498.4 ± 2.3
308.32 K, x1 = 1	–	–	1578.3 ± 2.3
308.33 K, x1 = 0.051	–	–	1221.5 ± 2.2
308.33 K, x1 = 0.9234	–	–	1548.9 ± 2.4
308.35 K, x1 = 0.3571	–	–	1328.7 ± 2.2
308.35 K, x1 = 0.4979	–	–	1381.9 ± 2.3
308.36 K, x1 = 0.2	–	–	1272 ± 2.2
308.38 K, x1 = 0.6478	–	–	1440.3 ± 2.3
313.12 K, x1 = 1	3.51e-05 ± 7.5e-07	–	–
313.15 K, x1 = 0.1507	–	826.639 ± 0.27	–
313.15 K, x1 = 0.2986	–	858.379 ± 0.27	–
313.15 K, x1 = 0.4592	–	892.64 ± 0.28	–
313.15 K, x1 = 0.5676	–	915.331 ± 0.28	–
313.15 K, x1 = 0.6576	–	934.116 ± 0.28	–
313.15 K, x1 = 0.7435	–	951.814 ± 0.28	–
313.15 K, x1 = 0.8108	–	965.521 ± 0.29	–
313.15 K, x1 = 0.9374	–	991.027 ± 0.3	–
313.15 K, x1 = 1	–	1003.63 ± 0.23	–
313.19 K, x1 = 0.9374	3.06e-05 ± 6.6e-07	–	–
313.2 K, x1 = 0.6757	1.57e-05 ± 3.3e-07	–	–
313.21 K, x1 = 0.5676	1.24e-05 ± 2.6e-07	–	–
313.23 K, x1 = 0.4592	9.16e-06 ± 1.9e-07	–	–
313.23 K, x1 = 0.7435	1.95e-05 ± 4.2e-07	–	–
313.23 K, x1 = 0.8108	2.29e-05 ± 4.9e-07	–	–
313.26 K, x1 = 0.1507	3.36e-06 ± 7.2e-08	–	–
313.29 K, x1 = 0.2986	5.65e-06 ± 1.2e-07	–	–
313.32 K, x1 = 0.051	–	–	1204.9 ± 2.2
313.33 K, x1 = 0.7946	–	–	1485.7 ± 2.3
313.35 K, x1 = 1	–	–	1566.5 ± 2.3
313.36 K, x1 = 0.3571	–	–	1313.8 ± 2.2
313.36 K, x1 = 0.9234	–	–	1536.8 ± 2.4
313.37 K, x1 = 0.2	–	–	1256.2 ± 2.2
313.37 K, x1 = 0.4979	–	–	1367.6 ± 2.3
313.39 K, x1 = 0.6478	–	–	1426.9 ± 2.3
318.15 K, x1 = 0.1507	–	822.854 ± 0.27	–
318.15 K, x1 = 0.2986	–	854.74 ± 0.27	–
318.15 K, x1 = 0.4592	–	889.157 ± 0.28	–
318.15 K, x1 = 0.5676	–	911.95 ± 0.28	–
318.15 K, x1 = 0.6576	–	930.812 ± 0.28	–
318.15 K, x1 = 0.7435	–	948.578 ± 0.28	–
318.15 K, x1 = 0.8108	–	962.345 ± 0.29	–
318.15 K, x1 = 0.9374	–	987.943 ± 0.3	–
318.15 K, x1 = 1	–	1000.58 ± 0.23	–
318.29 K, x1 = 0.051	–	–	1188.5 ± 2.2
318.3 K, x1 = 0.7946	–	–	1473.1 ± 2.3
318.35 K, x1 = 0.3571	–	–	1299.1 ± 2.2
318.35 K, x1 = 0.4979	–	–	1353.5 ± 2.3
318.35 K, x1 = 1	–	–	1554.8 ± 2.3
318.36 K, x1 = 0.9234	–	–	1525 ± 2.4
318.38 K, x1 = 0.2	–	–	1240.6 ± 2.2
318.38 K, x1 = 0.6478	–	–	1413.6 ± 2.3
318.56 K, x1 = 0.8108	1.87e-05 ± 4e-07	–	–
318.72 K, x1 = 1	2.79e-05 ± 6e-07	–	–
318.73 K, x1 = 0.9374	2.45e-05 ± 5.3e-07	–	–
318.74 K, x1 = 0.6575	1.29e-05 ± 2.7e-07	–	–
318.75 K, x1 = 0.5676	1.03e-05 ± 2.2e-07	–	–
318.75 K, x1 = 0.7435	1.59e-05 ± 3.4e-07	–	–
318.76 K, x1 = 0.4592	7.65e-06 ± 1.6e-07	–	–
318.8 K, x1 = 0.1507	2.79e-06 ± 5.9e-08	–	–
318.81 K, x1 = 0.2986	4.76e-06 ± 1e-07	–	–
